{"source": "paper PMC8305076", "about": "“Comprehensive Evaluation of Biological Effects of Pentathiepins on Various Human Cancer Cell Lines and Insights into Their Mode of Action” (International Journal of Molecular Sciences, 2021)", "key": {"[1]": {"tested_on": "HAP-1, HAP-1.KO.GPx1, Siso and A2780 cells", "assay": "cellular morphology after 24 h", "assay_type": "cell-based, human", "design": "key: no impact (0); weak impact (+); strong impact (++)", "details": "summary grade", "text": "All new pentathiepins induced apoptosis, although to different extents and in a cell line-dependent manner. […] In the corresponding GPx1-knockout cell line, the effect of doxorubicin was higher (about 50%), whereas only two of the pentathiepins induced apoptosis, namely, 3 and 5. The fractions of early apoptotic cells were 34 and 15%, respectively, and the population of late apoptotic cells 6% for 3. In the ovarian carcinoma cell line A2780 the overall effects were marginal, but all compounds except 6 increased the percentage of early apoptotic cells to 6–14%, with 3 resulting in the highest amount. In the Siso cell line, pentathiepin 3 increased both the number of early and late apoptotic cells to about 20%, which exceeded the effects of doxorubicine (0.5 µM). These findings were further corroborated by the observation of morphological features such as membrane blebbing and cell shrinkage as particular hallmarks of apoptosis (Figure S51).\nFigure S51: Representative images of cellular morphology after an incubation for 24 h with the respective pentathiepins 1-6 (IC90) or a corresponding volume of DMF as negative control in HAP-1, HAP-1.KO.GPx1, Siso and A2780 cells. Arrows denote membrane blebbing, dashed arrows label cell shrinkage.\n(1 picture or pasted object on this page, not shown here)"}, "RT-4": {"tested_on": "RT-4", "assay": "MTT cell viability assay", "assay_type": "cell-based", "details": "Homo sapiens, 48 h", "method": "(§1) Distinct MTT cell viability and crystal violet cell proliferation assays were performed to assess the cytotoxicity of the compounds 1–6 on 14 human cancer cell lines. In the viability assay, cells with intact mitochondria and thus active dehydrogenases are competent to convert MTT to the corresponding insoluble formazan. The formazan can be photometrically detected after solubilization and allows for indirect conclusions about the viability of the cells as an IC50 value. In the crystal violet assay, cells are stained by the binding of the dye to the chromatin, thus allowing for a quantification of biomass that remains adherent after a treatment in comparison with a control after a specific time. Potency is defined as the growth inhibitory concentration 50% (GI50).\n(§2) In addition to performing the cell viability assay under normoxia (19% atmospheric oxygen), incubations were also conducted under hypoxic conditions, i.e., atmospheric oxygen levels of 1% during the treatment for 48 h. Hypoxia is a favorable condition of the tumor microenvironment that is connected with poor outcome. Therefore, the low oxygen condition mimics better the tumor environment. The biological effect of the pentathiepins under this condition provides insight into their dependency for oxygen, which has been postulated a key component in the proposed mechanism of action (Figure 3). Consistent with the proposed mechanism of action for five of the compounds, potency decreased under hypoxic conditions; in fact for 6, the half-maximal inhibitory concentration exceeded the highest tested concentration of 10 µM in four cell lines (Figure 6, Table S3). […] In contrast to the other compounds, in some cell lines, the cytotoxic effects of 1 were more pronounced under oxygen-reduced incubation conditions (Figure 6), indicating a tangential role of oxygen availability for this pentathiepin. Especially for the breast cancer cell line MCF-7, the cytotoxicity increased substantially, indicated by a decrease of the IC50 from >10.0 µM to about 1.0 µM.\n(§3) The effect of the pentathiepins on the viability of the cell lines was assessed via an MTT assay, performed as previously described. Healthy and viable cells convert the yellow soluble 3-(4,5-dimethylthiazol-2-yl)-2,5-diphenyltetrazolium bromide to the insoluble purple corresponding formazan, which can be spectrophotometrically measured. For this assay, 5000 cells (1 250 for LCLC-103H) in 0.1 mL of medium were seeded per well of a 96-well plate and incubated at standard conditions for 24 h prior to treatment. A serial dilution of the test compounds was prepared in medium, covering final concentrations from 10.0 to 0.04 µM, and 0.1 mL of the working solution was added to each well in triplicate. After 48 h, 20 µL of a 2.5 mg/mL MTT in PBS solution was pipetted into each well and further incubated for 4 h at standard conditions. Thereafter, medium was replaced with 50 µL DMSO, and the plates were put on a shaker for 5 min and subsequently read at λ = 570 nm, with a SpectraMax 384plus (Molecular Devices, Sunnyvale, CA, USA). The cell viabilities of the treatment conditions were calculated in relation to a solvent control sample. The absolute IC50 was calculated via nonlinear regression followed by interpolation of the dose–response graphs in Prism 7 (GraphPad, San Diego, CA, USA). The IC90 was derived from the IC50 by using the slope factor of the dose–response graph with the tool QuickCalcs from GraphPad (GraphPad Software, San Diego, CA, USA)."}, "YAPC": {"tested_on": "YAPC", "assay": "MTT cell viability assay", "assay_type": "cell-based", "details": "Homo sapiens; for IC50: 48 h", "method": "as §1, §2, §3"}, "RT-112": {"tested_on": "RT-112", "assay": "MTT cell viability assay", "assay_type": "cell-based", "details": "Homo sapiens, 48 h", "method": "as §1, §2, §3"}, "A2780cis": {"tested_on": "A2780cis", "assay": "MTT cell viability assay", "assay_type": "cell-based", "details": "Homo sapiens, 48 h", "method": "as §1, §2, §3"}, "Kyse-70": {"tested_on": "Kyse-70", "assay": "MTT cell viability assay", "assay_type": "cell-based", "details": "Homo sapiens, 48 h", "method": "as §1, §2, §3"}, "PATU-8902": {"tested_on": "PATU-8902", "assay": "MTT cell viability assay", "assay_type": "cell-based", "details": "Homo sapiens; for IC50: 48 h", "method": "as §1, §2, §3"}, "HAP-1.KO.GPx1": {"tested_on": "HAP-1.KO.GPx1", "assay": "MTT cell viability assay", "assay_type": "cell-based", "details": "Homo sapiens; for IC50: 48 h", "method": "as §1, §2, §3"}, "A-427": {"tested_on": "A-427", "assay": "MTT cell viability assay", "assay_type": "cell-based", "details": "Homo sapiens, 48 h", "method": "as §1, §2, §3"}, "A2780": {"tested_on": "A2780", "assay": "MTT cell viability assay", "assay_type": "cell-based", "details": "Homo sapiens; for IC50: 48 h", "method": "as §1, §2, §3"}, "LCLC-103H": {"tested_on": "LCLC-103H", "assay": "MTT cell viability assay", "assay_type": "cell-based", "details": "Homo sapiens, 48 h", "method": "as §1, §2, §3"}, "DanG": {"tested_on": "DanG", "assay": "MTT cell viability assay", "assay_type": "cell-based", "details": "Homo sapiens; for IC50: 48 h", "method": "as §1, §2, §3"}, "Siso": {"tested_on": "Siso", "assay": "MTT cell viability assay", "assay_type": "cell-based", "details": "Homo sapiens; for IC50: 48 h", "method": "as §1, §2, §3"}, "HAP-1": {"tested_on": "HAP-1", "assay": "MTT cell viability assay", "assay_type": "cell-based", "details": "Homo sapiens; for IC50: HAP1, 48 h", "method": "as §1, §2, §3"}, "[2]": {"details": "hypoxic (1% O2), read-out: IC50 MTT-H mean"}, "[3]": {"details": "normoxic (19% O2), read-out: IC50 MTT-N mean"}, "[4]": {"details": "calculated via GraphPad QuickCalcs from MTT IC50 and slope factor"}}, "note": "Where two headings read alike, the source gives them in different places."}
{"smiles": "CCOc1c2c(c3ccc(C(=O)N4CCN(S(=O)(=O)c5ccc(C)cc5)CC4)cn13)SSSSS2", "note": "[Compound 6, (6-Ethoxy-[1,2,3,4,5]pentathiepino[6,7-a]indolizin-9-yl)(4-tosylpiperazinyl)methanone]", "values": [{"measurement": "Morphological changes", "setting": "[1]", "value": "+"}, {"measurement": "IC50", "setting": "RT-4; [2]", "value": 5.05, "unit": "µM"}, {"measurement": "IC50", "setting": "RT-4; [3]", "value": 1.55, "unit": "µM"}, {"measurement": "IC50", "setting": "YAPC; [2]", "value": 3.72, "unit": "µM"}, {"measurement": "IC50", "setting": "YAPC; [3]", "value": 5.17, "unit": "µM"}, {"measurement": "IC90", "setting": "YAPC; [4]", "value": 17.9, "unit": "µM"}, {"measurement": "IC50", "setting": "RT-112; [2]", "value": "> 10", "unit": "µM"}, {"measurement": "IC50", "setting": "RT-112; [3]", "value": 3.41, "unit": "µM"}, {"measurement": "IC50", "setting": "A2780cis; [2]", "value": 1.72, "unit": "µM"}, {"measurement": "IC50", "setting": "A2780cis; [3]", "value": 1.51, "unit": "µM"}, {"measurement": "IC50", "setting": "Kyse-70; [2]", "value": "> 10", "unit": "µM"}, {"measurement": "IC50", "setting": "Kyse-70; [3]", "value": 1.95, "unit": "µM"}, {"measurement": "IC50", "setting": "PATU-8902; [2]", "value": "> 10", "unit": "µM"}, {"measurement": "IC50", "setting": "PATU-8902; [3]", "value": 2.98, "unit": "µM"}, {"measurement": "IC90", "setting": "PATU-8902; [4]", "value": 7.58, "unit": "µM"}, {"measurement": "IC50", "setting": "HAP-1.KO.GPx1; [2]", "value": 1.84, "unit": "µM"}, {"measurement": "IC50", "setting": "HAP-1.KO.GPx1; [3]", "value": 0.778, "unit": "µM"}, {"measurement": "IC90", "setting": "HAP-1.KO.GPx1; [4]", "value": 1.46, "unit": "µM"}, {"measurement": "IC50", "setting": "A-427; [2]", "value": 1.39, "unit": "µM"}, {"measurement": "IC50", "setting": "A-427; [3]", "value": 1.79, "unit": "µM"}, {"measurement": "IC50", "setting": "A2780; [2]", "value": 2.11, "unit": "µM"}, {"measurement": "IC50", "setting": "A2780; [3]", "value": 0.891, "unit": "µM"}, {"measurement": "IC90", "setting": "A2780; [4]", "value": 2.39, "unit": "µM"}, {"measurement": "IC50", "setting": "LCLC-103H; [2]", "value": 2.53, "unit": "µM"}, {"measurement": "IC50", "setting": "LCLC-103H; [3]", "value": 2.82, "unit": "µM"}, {"measurement": "IC50", "setting": "DanG; [2]", "value": "> 10", "unit": "µM"}, {"measurement": "IC50", "setting": "DanG; [3]", "value": 2.18, "unit": "µM"}, {"measurement": "IC90", "setting": "DanG; [4]", "value": 4.94, "unit": "µM"}, {"measurement": "IC50", "setting": "Siso; [2]", "value": "> 10", "unit": "µM"}, {"measurement": "IC50", "setting": "Siso; [3]", "value": 3.26, "unit": "µM"}, {"measurement": "IC90", "setting": "Siso; [4]", "value": 5.07, "unit": "µM"}, {"measurement": "IC50", "setting": "HAP-1; [2]", "value": 1.32, "unit": "µM"}, {"measurement": "IC50", "setting": "HAP-1; [3]", "value": 0.722, "unit": "µM"}, {"measurement": "IC90", "setting": "HAP-1; HAP1, calculated via GraphPad QuickCalcs from MTT IC50 and slope factor", "value": 1.46, "unit": "µM"}]}
